Test results from patent US9181218B2, “Compounds for improved stem cell differentiation into hepatocytes” (Hoffmann-La Roche Inc., priority 2013, dated 2015).

System: interferon-stimulated genes (ISGs)
Experiment: Microarray analysis of iCell Hepatocytes treated with the compound of example 1
Assay type: cell-based, Human
Excerpt: iCell Hepatocytes treated with the compound of example 1 results in the up and down-regulation of a host of genes; including a kinetic effect on interferon-stimulated gene (ISGs) expression. See FIGS. 15-I and 15-II, 16-I and 16-II and 18 and Table 1.

## O=C(NCc1cccc(F)c1)c1cccc2nc(-c3c(NC[C@@H](O)c4ccccc4)cc[nH]c3=O)[nH]c12 [Example 1, 2-[4-((S)-2-hydroxy-2-phenyl-ethylamino)-2-oxo-1,2-dihydro-pyridin-3-yl]-3H-benzoimidazole-4-carboxylic acid 3-fluoro-benzylamide]
DAY 7
  JAK2 Raw Est Fold Change: 1.39
  JUNB Raw Est Fold Change: −8.16
  KIAA0040 Raw Est Fold Change: −1.76
  KIF5C Raw Est Fold Change: −4.32
  KPNB1 Raw Est Fold Change: −1.34
  LRP4 Raw Est Fold Change: −2.80
  LTBP2 Raw Est Fold Change: −2.94
  LYN Raw Est Fold Change: −1.71
  MAFB Raw Est Fold Change: 6.31
  MAFK Raw Est Fold Change: −1.70
  MAP3K8 Raw Est Fold Change: −6.22
  MAX Raw Est Fold Change: −1.95
  MCL1 Raw Est Fold Change: −1.33
  MSR1 Raw Est Fold Change: 16.00
  MT1F Raw Est Fold Change: 2.56
  MTHFD2L Raw Est Fold Change: −5.12
  MTMR1 Raw Est Fold Change: −1.20
  MYC Raw Est Fold Change: −7.27
  MYD88 Raw Est Fold Change: 1.19
  MYOM2 Raw Est Fold Change: 1.59
  MYT1 Raw Est Fold Change: −3.88
  NEXN Raw Est Fold Change: −2.35
  NFE2 Raw Est Fold Change: −5.79
  NFIL3 Raw Est Fold Change: −1.60
  NGFB Raw Est Fold Change: 1.97
  NLRC5 Raw Est Fold Change: −3.27
  NMI Raw Est Fold Change: 1.34
  NPAS2 Raw Est Fold Change: −4.43
  OPTN Raw Est Fold Change: 1.28
  PADI2 Raw Est Fold Change: 4.13
  PARP14 Raw Est Fold Change: 1.33
  PCK2 Raw Est Fold Change: 8.00
  PCMT1 Raw Est Fold Change: −1.45
  PCTK3 Raw Est Fold Change: 2.27
  PDGFRL Raw Est Fold Change: −3.16
  PEX26 Raw Est Fold Change: 1.38
  PHF11 Raw Est Fold Change: −2.75
  PHF15 Raw Est Fold Change: −1.69
  PHLDA1 Raw Est Fold Change: −9.08
  PI4K2B Raw Est Fold Change: 1.41
  PIM3 Raw Est Fold Change: −2.64
  PLAC8 Raw Est Fold Change: 5.43
  PLAUR Raw Est Fold Change: −2.56
  PLSCR1 Raw Est Fold Change: −2.59
  PML Raw Est Fold Change: −2.58
  PON1 Raw Est Fold Change: 5.18
  PON2 Raw Est Fold Change: −1.39
  PPIC Raw Est Fold Change: −2.26
  PSMB10 Raw Est Fold Change: 1.91
  PTEN Raw Est Fold Change: −1.44
  PUS1 Raw Est Fold Change: −1.41
  PXK Raw Est Fold Change: −1.23
  RAB27A Raw Est Fold Change: −5.10
  RAN Raw Est Fold Change: −1.29
  RBMS1 Raw Est Fold Change: −3.48
  RECQL Raw Est Fold Change: −1.66
  RIPK2 Raw Est Fold Change: −1.45
  RPL22 Raw Est Fold Change: 3.02
  RSAD2 Raw Est Fold Change: 5.52
  RXRA Raw Est Fold Change: 1.28
  SAA1 Raw Est Fold Change: −1.51
  SAMD9L Raw Est Fold Change: 2.42
  SCARB2 Raw Est Fold Change: 1.64
  SDC2 Raw Est Fold Change: 1.66
  SELL Raw Est Fold Change: 3.83
  SELP Raw Est Fold Change: 5.95
  SERPINB9 Raw Est Fold Change: −1.86
  SF3A1 Raw Est Fold Change: 1.26
  SFPQ Raw Est Fold Change: −1.57
  SHMT2 Raw Est Fold Change: 1.44
  SLC7A5 Raw Est Fold Change: 1.78
  SLC10A1 Raw Est Fold Change: 10.61
  SLC15A2 Raw Est Fold Change: −1.52
  SLC20A1 Raw Est Fold Change: 1.90
  SLC25A28 Raw Est Fold Change: −1.47
  SLC30A1 Raw Est Fold Change: 2.66
  SLFN12 Raw Est Fold Change: −1.92
  SOAT2 Raw Est Fold Change: 11.97
  SOCS1 Raw Est Fold Change: −42.96
  SOCS3 Raw Est Fold Change: −17.74
  SPSB1 Raw Est Fold Change: −2.63
  SPTLC2 Raw Est Fold Change: −1.49
  SRGAP2 Raw Est Fold Change: 1.95
  SSBP3 Raw Est Fold Change: 1.49
  SSR1 Raw Est Fold Change: −1.71
  STAT1 Raw Est Fold Change: −4.03
  STEAP4 Raw Est Fold Change: −1275.83
  STK39 Raw Est Fold Change: −1.88
  TAP1 Raw Est Fold Change: −1.72
  TAP2 Raw Est Fold Change: −2.02
  TARBP1 Raw Est Fold Change: −1.18
  TCF7L2 Raw Est Fold Change: −1.57
  TEAD4 Raw Est Fold Change: −6.47
  TFDP2 Raw Est Fold Change: 1.26
  TFEC Raw Est Fold Change: 7.83
  TFPI Raw Est Fold Change: −1.80
  THBD Raw Est Fold Change: −6.70
  TIMP1 Raw Est Fold Change: −11.92
  TMEM2 Raw Est Fold Change: −3.07
  TMEM49 Raw Est Fold Change: −1.98
  TNFSF14 Raw Est Fold Change: −2.68
  TOR1B Raw Est Fold Change: −1.39
  TPM1 Raw Est Fold Change: 1.77
  TRIB3 Raw Est Fold Change: 1.84
  TRIM14 Raw Est Fold Change: 1.68
  TXNIP Raw Est Fold Change: −7.72
  UBE1L Raw Est Fold Change: 1.65
  UBE2S Raw Est Fold Change: −1.95
  ULK4 Raw Est Fold Change: −4.12
  UPP2 Raw Est Fold Change: 16.78
  USP25 Raw Est Fold Change: 1.84
  WARS Raw Est Fold Change: −1.50
  WAS Raw Est Fold Change: 3.44
  XRCC6BP1 Raw Est Fold Change: 1.33
  ZC3HAV1 Raw Est Fold Change: −1.57
  ZNF24 Raw Est Fold Change: −1.16
  ZNF276 Raw Est Fold Change: 1.44
  ZNF313 Raw Est Fold Change: 1.31
Microarray heat map, FIG. 15
  interferon-stimulated genes (ISGs) expression: down-regulated interferon-stimulated genes (ISGs) as early as 2 hr
microarray, FIG. 15
  CREB3L1 expression: down-regulated as early as 2 hr post treatment
  SLC10A1 expression: up-regulated at 7 day post-treatment
